Test results published in PubChem BioAssay (NCI).
“And” between values parts separate entries of the source, which are not always exact repeats. Identical values can stand only once.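 96-well plates; 48 h exposure; 5 concentrations. Endpoints by linear interpolation between flanking doses. Not reached: highest tested concentration assigned. GI50 is the concentration that inhibits growth by half. TGI denotes the concentration required for complete inhibition of growth.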

Columns and labels:
Assay in all cases: inhibition of tumour cell growth, NCI panel, 48 h
COLO 205 colon = test system: COLO 205 colon
EKVX NSCLC = test system: EKVX NSCLC
LOX IMVI melanoma = test system: LOX IMVI melanoma
MCF7 breast = test system: MCF7 breast
MDA-MB-231 breast = test system: MDA-MB-231 breast
NCI-H226 lung = test system: NCI-H226 lung
OVCAR-8 ovarian = test system: OVCAR-8 ovarian
SF-268 CNS = test system: SF-268 CNS
SR leukemia = test system: SR leukemia
UACC-257 melanoma = test system: UACC-257 melanoma

SMILES | GI50 (COLO 205 colon) | TGI (COLO 205 colon) | GI50 (EKVX NSCLC) | TGI (EKVX NSCLC) | GI50 (LOX IMVI melanoma) | TGI (LOX IMVI melanoma) | GI50 (MCF7 breast) | TGI (MCF7 breast) | GI50 (MDA-MB-231 breast) | TGI (MDA-MB-231 breast) | GI50 (NCI-H226 lung) | TGI (NCI-H226 lung) | GI50 (OVCAR-8 ovarian) | TGI (OVCAR-8 ovarian) | GI50 (SF-268 CNS) | TGI (SF-268 CNS) | GI50 (SR leukemia) [µM] | TGI (SR leukemia) | GI50 (UACC-257 melanoma) | TGI (UACC-257 melanoma)
C#CCOc1ccc2ncnc(Nc3ccc(NC(=O)C=C)cc3)c2c1 | 15.6 µM | 91.5 µM | > 100 µM | > 100 µM | 3.92 µM | 17.5 µM | 2.98 µM | > 100 µM | 29 µM | > 100 µM | > 100 µM | > 100 µM | 45.8 µM | > 100 µM | 71.3 µM | > 100 µM | 3.47 | 57.4 µM | 56.9 µM | > 100 µM
CC(=O)[O][Hg][c]1c(C)c(C)cc(C)c1C | 2.49 µM | 6.47 µM | 1.25 µM | 3.11 µM | 1.21 µM | 3.06 µM | 0.873 µM | 2.86 µM | 0.87 µM | 2.33 µM | 2.05 µM | 3.87 µM | 1.77 µM | 3.23 µM | 0.825 µM | 2.25 µM | 0.0629 | 2.21 µM | 1.36 µM | 2.73 µM
CCOC(=O)COc1ccc2c(C)cc(=O)oc2c1 |  | > 100 µM |  | > 100 µM |  | > 100 µM |  | > 100 µM |  | > 100 µM |  | > 100 µM |  | > 100 µM |  | > 100 µM |  | > 100 µM |  | > 100 µM
COc1cc2c(=O)[nH]c3cc([N+](=O)[O-])ccc3c2cc1[N+](=O)[O-] | 4.11 µM | > 100 µM | 7.08 µM | > 100 µM | 3.51 µM | > 100 µM | 0.979 µM | > 100 µM | 6.1 µM | > 100 µM | 3.25 µM | 39.2 µM | 3.3 µM | 88.1 µM | 4.42 µM | 88 µM | 2.95 | > 100 µM | 3.28 µM | > 100 µM
CN(C)C(=S)SCC(=O)Nc1ccccc1 |  | > 100 µM |  | > 100 µM |  | > 100 µM |  | > 100 µM |  | > 100 µM |  | > 100 µM |  | > 100 µM |  | > 100 µM |  | > 100 µM |  | > 100 µM
COc1cc2nc3cc([N+](=O)[O-])ccc3c(NCCNCC(C)(C)O)c2cc1OC | 0.37 µM | 1.54 µM | 1.72 µM | 5.7 µM | 0.715 µM | 2.51 µM | 0.372 µM | 2.04 µM | 0.451 µM | 2.41 µM | 1.28 µM | 4.05 µM | 0.769 µM | 4.48 µM | 0.491 µM | 2.54 µM | 0.238 | 3.04 µM | 1.94 µM | 4.19 µM
CCC(=O)c1c(C(F)(F)F)n([O-])c2cc(F)c(F)cc2[n+]1=O | 0.466 µM | 3.16 µM | 2.19 µM | 4.91 µM | 0.0284 µM | 0.221 µM | 0.623 µM |  | 0.594 µM | 1.49 µM | 0.502 µM | 0.991 µM | 0.632 µM | 1.59 µM | 1.4 µM | 3.21 µM | 0.0607 | 0.263 µM | 1.5 µM | 2.98 µM
CN(Cc1cnc2nc(N)nc(N)c2n1)c1ccc(C(=O)NC(CCC(=O)O)C(=O)O)cc1Br (stereo not given) | < 0.0215 µM | 17.4 µM | < 0.01 µM | 48.3 µM | < 0.01 µM | 2.1 µM | < 0.01 µM | > 100 µM | 6.02 µM | > 100 µM | < 0.01 µM | > 96.4 µM | < 0.01 µM | > 100 µM | < 0.01 µM | 13.1 µM | < 0.01 | 8.49 µM | 0.168 µM | 16.5 µM
CO[C@H]1C[C@@H]2CC[C@@H](C)[C@@](O)(O2)C(=O)C(=O)N2CCCC[C@H]2C(=O)O[C@H]([C@H](C)C[C@@H]2CC[C@@H](OCCO)[C@H](OC)C2)CC(=O)[C@H](C)C=C(C)[C@@H](O)[C@@H](OC)C(=O)[C@H](C)C[C@H](C)/C=C/C=C/C=C1C | 12.3 µM | 30.1 µM | < 0.01 µM | 21.5 µM | < 0.01 µM | 17.8 µM | < 0.01 µM | 14 µM | 11.6 µM | 35.4 µM |  | 23.5 µM |  | 29.5 µM | 0.269 µM | 21.1 µM | < 0.01 | 10.2 µM | 5.88 µM | 22.2 µM
COc1nnc2ccc(N3CCC(c4ccc(OCCN5CCN(C)C(=O)[C@H]5C)cc4)CC3)nn12 | 0.0553 µM | > 100 µM | 0.239 µM | > 100 µM | 0.038 µM | 4.56 µM | 0.0234 µM | > 100 µM | 0.0751 µM | > 100 µM | 2.3 µM | > 67.7 µM | 0.544 µM | > 100 µM | 1.69 µM | > 100 µM | 0.0198 | > 100 µM | 0.187 µM | > 100 µM
COc1ccc(N=N/C(C(=O)C(F)(F)F)=C(\O)c2ccc(Cl)cc2)cc1 | 11.3 µM | 25.1 µM | 9.09 µM | 22.3 µM | 3.29 µM | 21.5 µM | 4.11 µM | 37.6 µM | 9.11 µM | 66.9 µM | 21.2 µM | > 100 µM | 10.7 µM | 70.3 µM | 12 µM | > 100 µM | 4.26 | 24.7 µM | 4.57 µM | 36.2 µM
C=CC(=O)N1CC2(CC(n3nc(-c4ccc5c(cnn5C)c4)c(-c4c(Cl)c(C)cc5[nH]ncc45)c3C)C2)C1 | 2.1 µM | 4.17 µM | 3.23 µM | 11.1 µM | 1.69 µM | 3.55 µM | 2.2 µM | 7.03 µM | 2.54 µM | 6.62 µM | 2.63 µM | 8.75 µM | 2.13 µM | 4.84 µM | 4.5 µM | 20 µM | 1.61 | 6.12 µM | 2.16 µM | 6.57 µM
CCN(CC)Cc1cc2[nH]c3c4ccc(Cl)cc4ncc3c2cc1OC | 3.69 µM and 1.79 µM | 8.54 µM and 3.26 µM | 12.1 µM and 11.8 µM | 24.9 µM and 24.4 µM | 1.73 µM and 1.7 µM | 3.43 µM and 3.23 µM | 2.17 µM and 1.61 µM | 8.37 µM and 3.29 µM | 1.83 µM and 1.8 µM | 7.16 µM and 4.51 µM | 14.4 µM and 15.1 µM | 28.8 µM and 28.5 µM | 3.63 µM and 2.5 µM | 12.2 µM and 7.41 µM | 3.33 µM and 2.9 µM | 10 µM and 9.2 µM | 2.36 |  | 2.79 µM and 1.82 µM | 6.92 µM and 3.45 µM
O=C(Nc1nc2ccccc2s1)Nc1ccc([N+](=O)[O-])cc1Cl | 10.3 µM | 32.9 µM | 11 µM | 45.1 µM | 2.66 µM | 6.7 µM | 2.55 µM | 9.72 µM | 3.21 µM | 8.59 µM | 5.58 µM | 13.1 µM | 2.13 µM | 4.99 µM | 4.49 µM | 18.6 µM | 3.31 | > 100 µM | 5.62 µM | 14.2 µM
C=C1C(=O)OC2/C=C(/C)C(OC(C)=O)C/C=C(\C)C(OC(=O)C3(C)OC3C)C(O)C12 (stereo not given) |  | > 100 µM |  | > 100 µM |  | > 100 µM |  | > 100 µM |  | > 100 µM |  | > 100 µM |  | > 100 µM |  | > 100 µM |  | > 100 µM |  | > 100 µM
O=C1Cc2cc(C(=O)NC3C[C@H]4CC[C@@H](C3)N4S(=O)(=O)CC3CCN(CCCC(F)(F)F)CC3)c(Cl)cc2N1 (stereo not given in full) | 31.2 µM | > 100 µM | > 100 µM | > 100 µM | > 100 µM | > 100 µM | > 100 µM | > 100 µM | > 100 µM | > 100 µM | > 100 µM | > 100 µM | > 100 µM | > 100 µM | > 100 µM | > 100 µM | 26.5 | > 100 µM | > 100 µM | > 100 µM
CCCCCCCCCCCCCC[C@@H](O)[C@H]1CC[C@H]([C@H]2CC[C@H]([C@H](O)CCCCCC[C@@H](O)CC3=C[C@H](C)OC3=O)O2)O1 | 1.52 µM | 3.06 µM and > 25 µM | 1.68 µM | 9.27 µM and > 25 µM |  | 2.56 µM and > 25 µM | 1.14 µM | 3.47 µM and > 25 µM | 2.31 µM | 8.9 µM and > 25 µM | 1.71 µM | 5.04 µM and > 25 µM | > 25 µM | 3.94 µM and > 25 µM | 1.69 µM | 5.04 µM and > 25 µM | 5.88 | 6.05 µM and > 25 µM | 1.62 µM | 6.01 µM and > 25 µM
CN1C(=O)C2(c3ccccc31)N(c1ccc(Cl)cc1)C(=O)C2(c1ccccc1)c1ccccc1 (stereo not given) | 37.6 µM | > 100 µM | 53.3 µM | > 100 µM | > 100 µM | > 100 µM | 39.6 µM | > 100 µM | 13.4 µM | > 100 µM | > 100 µM | > 100 µM | > 100 µM | > 100 µM | > 100 µM | > 100 µM | 41.7 | > 100 µM | 47.6 µM | > 100 µM
Cc1cc(Cl)nc(N(CCCNc2ccnc3cc(Cl)ccc23)Cc2ccco2)n1 | 1.43 µM | 3.08 µM | 2.18 µM | 7.73 µM | 2.07 µM | 5.4 µM | 1.81 µM | 6.1 µM | 2.13 µM | 5.93 µM | 1.3 µM | 6.91 µM | 2.05 µM | 6.31 µM | 3.83 µM | 31.1 µM | 1.65 | 4.49 µM | 2.21 µM | 5.76 µM
